In patent US5814622A, “Compounds derived from boronic acid” (Adir et Compagnie, priority 1996, dated 1998):

Assays:
[1] = test system: thrombin; details: literature; cited from earlier work
[2] = test system: plasma from the dogs (TT); assay: TT in dogs after oral administration; type: in vivo; details: dog; for Increase in TT (number of times that the initial time is increased), 1 hour / Increase in TT (number of times that the initial time is increased), 4 hours: 5 mg/kg
Procedure: (§2) Male or female dogs weighing 11-28 kg are treated orally with the products of the invention (5 mg/kg) or with the reference substance, DUP 714, at a concentration of 2.5 mg/kg. The coagulation times (TT, ACT) are determined in samples of plasma from the dogs 10 min before and 30 min, 1 hour, 2 hours, 4 hours and 6 hours after administration of the products. […] The number of platelets is also determined in each sample using a T450 counter (Coultronics).
(§3) The values show the number of times that the initial time is increased.

[3] = test system: plasma from the dogs (ACT); assay: ACT in dogs after oral administration; type: in vivo; details: dog; for Increase in ACT (number of times that the initial time is increased), 1 hour / Increase in ACT (number of times that the initial time is increased), 4 hours: 5 mg/kg
Procedure: as §2, §3

[4] = test system: platelets; assay: Thrombopenic activity after oral administration to dogs; type: in vivo; details: dog
Procedure: Male or female dogs weighing 11-28 kg are treated orally with the products of the invention (5 mg/kg) or with the reference substance, DUP 714, at a concentration of 2.5 mg/kg. […] The number of platelets is also determined in each sample using a T450 counter (Coultronics).
Under the conditions of our experiments, the number of platelets before the treatment is about 300,000 platelets/μl; the TT is about 19 seconds and the ACT is about 18 seconds.

[5] = biological target: T1, human urokinase (u-PA) (Homo sapiens, UniProt P00749); assay: Inhibition of urokinase (u-PA); type: biochemical; details: purified human u-PA 2 nM, substrate <Glu-Gly-Arg-pNA 0.56 mM, 20° C., pH 7.4
T1 construct: purchased Sigma

[6] = test system: human plasma (thrombin time); assay: Anticoagulant activity: thrombin time (TT) in human plasma; type: biochemical; details: 37° C., 2 min preincubation
Procedure: (§1) Anticoagulant activity, measurement of the thrombin time and the activated cephalin time in man In order to evaluate the anticoagulant activity of the compounds of the invention, the thrombin time (TT) and the activated cephalin time (ACT) were determined in samples of human plasma. An ST4 coagulometer (Diagnostica Stago, France) was used. […] The TT is determined with the Thrombin Prest reagent and the ACT with the Automat […] reagent. The inhibitor or the solvent (10 μl) is added to the plasma (90 μl), then the mixture is incubated for 2 minutes at 37° C. 100 μl of Thrombin […]) or of Automat […]) are added while starting the chronometer. […] The activity of an antagonist is evaluated by its capacity to prolong the TT and the ACT relative to the control.

[7] = test system: human plasma (activated cephalin time); assay: Anticoagulant activity: activated cephalin time (ACT) in human plasma; type: biochemical; details: 37° C., 2 min preincubation
Procedure: as §1

[8] = biological target: plasminogen tissue activator (t-PA) (Homo sapiens, UniProt P00750); assay: Inhibition of plasminogen tissue activator (t-PA); type: biochemical; details: t-PA 2 nM, substrate H-D-Ile-Pro-Arg-pNA 0.48 mM, 20° C., pH 7.4
Chain of plasminogen tissue activator (t-PA) (P00750 23-562 limits assumed): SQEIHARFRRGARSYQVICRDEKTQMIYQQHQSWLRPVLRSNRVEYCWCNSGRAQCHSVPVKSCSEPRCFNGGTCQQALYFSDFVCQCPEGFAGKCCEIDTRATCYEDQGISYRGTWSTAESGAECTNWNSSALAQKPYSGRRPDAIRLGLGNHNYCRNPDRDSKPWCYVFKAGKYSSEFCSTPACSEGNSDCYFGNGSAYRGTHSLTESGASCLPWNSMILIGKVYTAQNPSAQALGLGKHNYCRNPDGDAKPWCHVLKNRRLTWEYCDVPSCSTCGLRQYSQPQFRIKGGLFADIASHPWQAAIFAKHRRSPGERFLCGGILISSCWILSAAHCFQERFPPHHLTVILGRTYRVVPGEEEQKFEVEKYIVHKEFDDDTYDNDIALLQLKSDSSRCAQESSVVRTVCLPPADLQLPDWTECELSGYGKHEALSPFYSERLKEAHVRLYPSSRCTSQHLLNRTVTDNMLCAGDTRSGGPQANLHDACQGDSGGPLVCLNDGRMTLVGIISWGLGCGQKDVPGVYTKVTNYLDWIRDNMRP

[9] = biological target: T2, Plasmin (Homo sapiens, UniProt P00747); assay: Inhibition of plasmin; type: biochemical; details: purified human plasmin 2 nM, substrate <Glu-Phe-Lys-pNA 0.05 mM, 20° C., pH 7.4
T2 construct: Products Thrombin Plasmin t-PA u-PA; purchased Stage [sic]
T2 sequence (P00747 581-810 limits assumed): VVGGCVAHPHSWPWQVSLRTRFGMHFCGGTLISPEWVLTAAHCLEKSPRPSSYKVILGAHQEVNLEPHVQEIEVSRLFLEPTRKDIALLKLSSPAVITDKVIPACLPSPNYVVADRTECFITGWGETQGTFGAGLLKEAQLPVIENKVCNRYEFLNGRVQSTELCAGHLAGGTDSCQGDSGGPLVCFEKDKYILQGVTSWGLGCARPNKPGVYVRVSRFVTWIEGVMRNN
T2 sequence (P00747 97-580 partner limits assumed): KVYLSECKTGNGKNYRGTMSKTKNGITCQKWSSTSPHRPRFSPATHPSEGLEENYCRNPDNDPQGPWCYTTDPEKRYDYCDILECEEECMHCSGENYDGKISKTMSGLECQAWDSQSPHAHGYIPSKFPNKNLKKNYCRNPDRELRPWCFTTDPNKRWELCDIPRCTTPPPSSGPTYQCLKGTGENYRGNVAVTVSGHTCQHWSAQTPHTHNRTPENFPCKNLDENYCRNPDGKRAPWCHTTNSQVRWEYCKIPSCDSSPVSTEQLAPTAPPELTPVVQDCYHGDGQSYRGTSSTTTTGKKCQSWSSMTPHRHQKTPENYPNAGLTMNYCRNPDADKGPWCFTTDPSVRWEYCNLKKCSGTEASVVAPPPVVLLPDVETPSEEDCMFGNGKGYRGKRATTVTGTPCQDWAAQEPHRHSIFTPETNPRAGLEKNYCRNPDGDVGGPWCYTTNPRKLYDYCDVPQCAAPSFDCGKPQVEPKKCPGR

[10] = biological target: T3, human thrombin (Homo sapiens, UniProt P00734); assay: Inhibition of human thrombin (fibrinogen to fibrin); type: biochemical; details: human thrombin 0.7 nM, purified human fibrinogen, 20° C., pH 7.4
T3 construct: human thrombin (Sigma, specific activity 3230 UNIH/mg); purchased Sigma

[11] = test system: thrombin; details: prior knowledge; cited from earlier work

| Molecule | Thrombopenias observed 1 hour after oral administration to dogs ([4]; 2.5 mg/kg, 1 hour) [%] | fall in number of platelets ([4]; 2.5 mg/kg, 1 hour) [%] | IC50 [5] [nM] | IC50 [8] [nM] | IC50 [9] [nM] | Thrombopenias observed 1 hour after oral administration to dogs ([4]; 5 mg/kg, 1 hour) [%] | IC50 [10] [nM] | thrombin inhibition, in words [1] | increase of TT in animals, in words [2] | increase of ACT in animals, in words [3] | effect on number of platelets, in words ([4]; 2.5 mg/kg) | TT Ctt2 (concentration which multiplies the coagulation time by 2) [6] [µM] | ACT Ctt2 (concentration which multiplies the coagulation time by 2) [7] [µM] | Increase in TT (number of times that the initial time is increased), 1 hour [2] [times] | Increase in TT (number of times that the initial time is increased), 4 hours [2] [times] | Increase in ACT (number of times that the initial time is increased), 1 hour [3] [times] | Increase in ACT (number of times that the initial time is increased), 4 hours [3] [times] | activity via the oral route, in words [11] |
| --- | --- | --- | --- | --- | --- | --- | --- | --- | --- | --- | --- | --- | --- | --- | --- | --- | --- | --- |
| Cl.N=C(N)NCCC[C@H](NC(=O)c1ccc(C23CCC(Cl)(CC2)CC3)cc1)B(O)O [Ex. 6, 1-(R)-[4-(4-Chlorobicyclo[2.2.2]oct-1-yl)benzoylamino]-4-guanidinobutylboronic acid hydrochloride] |  |  | 30000 | 290 | 2040 | 0 | 9.7 |  |  |  |  | 0.75 | 3.13 | 30 | 10 | 4 | 2 |  |
| N=C(N)NCCC[C@H](NC(=O)C1(C(=O)NCc2ccccc2)CCCC1)B(O)O.O=S(=O)(O)c1ccccc1 [Ex. 22, 1-(R)-(1-Benzylaminocarbonylcyclopentanecarboxamido)-4-guanidinobutylboronic acid benzenesulfonate] |  |  | 780 | 1350 | 8630 | 0 | 4.9 |  |  |  |  | 0.30 | 1.58 | 20 | 8 | 6 | 2 |  |
| N=C(N)NCCC[C@H](NC(=O)C1(C(=O)NCCc2ccccc2)CCCC1)B(O)O.O=S(=O)(O)c1ccccc1 [Ex. 83, 1-(R)-(1-Phenethylaminocarbonylcyclopentanecarboxamido)-4-guanidinobutylboronic acid benzenesulfonate] |  |  | 1200 | 1560 | 6880 | 0 | 2.4 |  |  |  |  | 0.13 | 0.56 | > 30 | 18 | 7 | 4 |  |
| COc1cccc(CCNC(=O)C2(C(=O)N[C@@H](CCCNC(=N)N)B(O)O)CCCC2)c1.O=S(=O)(O)c1ccccc1 [Ex. 94, 1-(R)-[1-(3-Methoxyphenethylaminocarbonyl)cyclopentanecarboxamido]-4-guanidinobutylboronic acid benzenesulfonate] |  |  | 1000 | 1410 | 4060 | 0 | 3.9 |  |  |  |  | 0.32 | 1.77 | 17 | 21 | 9 | 4 |  |
| hirudin |  |  |  |  |  |  |  |  |  |  |  |  |  |  |  |  |  | not being active via the oral route |
| hirulog-1: Direct inhibitors of thrombin, currently in clinical development [reference compound] |  |  |  |  |  |  |  |  |  |  |  |  |  |  |  |  |  | not being active via the oral route |

Continued, in another order:

| Thrombopenias observed 1 hour after oral administration to dogs ([4]; 2.5 mg/kg, 1 hour) [%] | fall in number of platelets ([4]; 2.5 mg/kg, 1 hour) [%] | IC50 [5] [nM] | IC50 [8] [nM] | IC50 [9] [nM] | Thrombopenias observed 1 hour after oral administration to dogs ([4]; 5 mg/kg, 1 hour) [%] | IC50 [10] [nM] | Molecule | thrombin inhibition, in words [1] | increase of TT in animals, in words [2] | increase of ACT in animals, in words [3] | effect on number of platelets, in words ([4]; 2.5 mg/kg) | TT Ctt2 (concentration which multiplies the coagulation time by 2) [6] [µM] | ACT Ctt2 (concentration which multiplies the coagulation time by 2) [7] [µM] | Increase in TT (number of times that the initial time is increased), 1 hour [2] [times] | Increase in TT (number of times that the initial time is increased), 4 hours [2] [times] | Increase in ACT (number of times that the initial time is increased), 1 hour [3] [times] | Increase in ACT (number of times that the initial time is increased), 4 hours [3] [times] | activity via the oral route, in words [11] |
| --- | --- | --- | --- | --- | --- | --- | --- | --- | --- | --- | --- | --- | --- | --- | --- | --- | --- | --- |
| 55 | 55±14 |  |  |  |  |  | CC(=O)N[C@H](Cc1ccccc1)C(=O)N1CCC[C@H]1C(=O)N[C@@H](CCCNC(=N)N)B(O)O [DUP 714, Ac-(D)Phe-Pro-Arg boronic acid, reference compound] | thrombin inhibitor | appreciably increase | appreciably increase | lowers the number of platelets appreciably and reversibly |  |  |  |  |  |  |  |
|  |  | > 33000 | 810 | 1960 | 0 | 9.3 | COC12CCC(c3ccc(C(=O)N[C@@H](CCCNC(=N)N)B(O)O)cc3)(CC1)CC2.Cl [Ex. 3, 1-(R)-[4-(4-Methoxybicyclo[2.2.2]oct-1-yl)benzoylamino]-4-guanidinobutylboronic acid hydrochloride] |  |  |  |  | 0.32 | 1.25 | 16 | 12 | 19 | 14 |  |
|  |  | 15400 | 93 | 2100 | 40 | 6.6 | Cl.N=C(N)NCCC[C@H](NC(=O)c1ccc(C23CCC(O)(CC2)CC3)cc1)B(O)O [Ex. 12, 1-(R)-[4-(4-Hydroxybicyclo[2.2.2]oct-1-yl)benzoylamino]-4-guanidinobutylboronic acid hydrochloride] |  |  |  |  | 0.18 | 0.78 | 24 | 19 | > 30 | > 30 |  |
|  |  | 5610 | 1540 | 531 | 0 | 2.7 | COC12CCC(c3cccc(C(=O)N[C@@H](CCCNC(=N)N)B(O)O)c3)(CC1)CC2.Cl [Ex. 51, 1-(R)-[3-(4-Methoxybicyclo[2.2.2]oct-1-yl)benzoylamino]-4-guanidinobutylboronic acid hydrochloride] |  |  |  |  | 0.15 | 0.84 | 22 | 19 | 3 | 2 |  |
|  |  | > 33000 | 709 | 692 | 0 | 6.5 | Cl.N=C(N)NCCC[C@H](NC(=O)c1cccc(C23CCC(O)(CC2)CC3)c1)B(O)O [Ex. 69, 1-(R)-[3-(4-Hydroxybicyclo[2.2.2]oct-1yl)benzoylamino]-4-guanidinobutylboronic acid hydrochloride] |  |  |  |  | 0.17 | 0.56 | 18 | 15 | 4 | 3 |  |
|  |  | 1020 | 1440 | 3280 | 0 | 4 | COc1ccc(CCNC(=O)C2(C(=O)N[C@@H](CCCNC(=N)N)B(O)O)CCCC2)cc1OC [Ex. 103, 1-(R)-[1-(3,4-Dimethoxyphenethylaminocarbonyl)cyclopentanecarboxamido]-4-guanidinoboronic acid benzensulfonate] |  |  |  |  | 0.29 | 1.67 | > 30 | 24 | 6 | 4 |  |
